Measured values taken from patent US4520031A, “Method for reducing toxic effects of methyl-glyoxal bis-guanylhydrazone” (priority 1982, dated 1985).
“Also recorded” adds a separate entry of the source. Where two headings read alike, the source gives them in different places.

Key:
[1] = system: Prostate; experiment: Response to weekly MGBG, prostate; format: in vivo, human; conditions: 6 evaluable patients
[2] = system: Bladder (transitional cell); experiment: Response to weekly MGBG, bladder; format: in vivo, human
[3] = some peculiar to certain animal species; cited from earlier work
[4] = system: Head & Neck; experiment: Response to weekly MGBG, head & neck; format: in vivo, human; conditions: 2 evaluable patients
[5] = system: Lymphoma; experiment: Response to weekly MGBG, lymphoma; format: in vivo, human; conditions: 2 evaluable patients
[6] = parameters: muscle pain and weakness in patient with acute leukemia: dose or concentration left out as unconfirmed
Procedure: During the course of the clinical experiments, MGBG was administered to patients in approximately weekly doses ranging from 250 to 1000 mg per square meter.
Pre-treatment minimum evaluation included chest roentgenogram, liver and renal function tests, complete blood count with differential and platelet count and serum glucose. Pre-treatment performance status was recorded for each patient in accordance with SWOG criteria.
This intravenous infusion is administered to the patient over a period of time not less than 30 minutes. Accordingly, an approximation of the patient's surface area in square meters is calculated using a height and weight to surface area nomogram (listed in Documenta Geigy, Scientific Tables (1970) p. 537) and this factor is applied in determining the appropriate amount of MGBG salt to be added to the infusion solution. […] In the absence of toxicity, subsequent doses of MGBG are increased by 100 mg/m^2 over the previous week's dose. If patients experience moderate or severe reversible toxicity, the dose is reduced by 100 mg/m^2 relative to the previous week's dose. No change in dosage strength is made for mild toxicity.

[7] = system: polyamine synthesis; conditions: in vitro; cited from earlier work
[8] = system: mitochondrial respiration; conditions: in vitro; cited from earlier work
[9] = cited from earlier work
[10] = system: leukemia-L1210; conditions: Freelander and French; cited from earlier work
[11] = acute leukemia, iv 150 mg/m^2/day
[12] = lymphomas and solid tumors, iv 150 mg/m^2/day

CC(C=NNC(=N)N)=NNC(=N)N [MGBG, 1,1'-[(methylethanediylidene)dinitrilo] diguanidine]
IMP (Improvement noted) [1]: 1 | No Response [1]: 5 | CR (Complete response) ([2]; 3 evaluable patients): 1 | CR + PR ([2]; 3 evaluable patients): 1 | No Response ([2]; 3 evaluable patients): 2 | Duration Months ([2]; duration of CR + PR): 1 Months | toxicological effects observed [3]: gastrointestinal toxicity, delayed and fatal hypoglycemia, hepatic and renal damage, bone marrow depression, diarrhea and phlebitis | No Response [4]: 2 | No Response [5]: 2 | Number with Toxicity ([6]; 1 course MGBG, 13 patients): 1 patients | Number with Toxicity (Approx %) ([6]; 1 course MGBG, 13 patients): 8% | Number with Toxicity ([6]; 2 courses MGBG, 25 patients): 7 patients | Number with Toxicity (Approx %) ([6]; 2 courses MGBG, 25 patients): 28% | Number with Toxicity ([6]; 3 courses MGBG, 15 patients): 6 patients | Number with Toxicity (Approx %) ([6]; 3 courses MGBG, 15 patients): 40% | Anemia, Hemoglobin 5.0-6.9 g/100 ml ([6]; 90 patients): 2 patients | Anemia, Hemoglobin 7.0-8.9 g/100 ml ([6]; 90 patients): 1 patients | Diarrhea: 3-4 stools/day, no dehydration ([6]; 90 patients): 1 patients | Diarrhea: 4 liquid stools/day, IV hydration required ([6]; 90 patients): 1 patients | Granulocytes: <1000/mm^3 ([6]; 90 patients): 3 patients | vomiting ≤6 times/day ([6]; 90 patients): 5 patients | vomiting ≥7 times/day ([6]; 90 patients): 3 patients | patients with no toxicity (number) ([6]; 90 patients, 500 mg/m^2 or more each week): 67 patients | Mucositis: drug-related death ([6]; 90 patients, patient with hepatoma, one dose at 600 mg/m^2): 1 patients | muscle pain and weakness in patient with acute leukemia ([6]; acute leukemia, three weekly doses): One | toxicity at 250 mg/m^2 weekly ([6]; first twelve patients, 250 mg/m^2 weekly): no toxicity | Anorexia (Approx. %) ([6]; human, in vivo): 8% | Anorexia (No. of Patients) ([6]; human, in vivo): 7 patients | Balanitis (Approx. %) ([6]; human, in vivo): 4% | Balanitis (No. of Patients) ([6]; human, in vivo): 4 patients | Diarrhea (Approx. %) ([6]; human, in vivo): 3% | Diarrhea (No. of Patients) ([6]; human, in vivo): 3 patients | Granulocytes: <1500 mm^3 ([6]; human, in vivo): 2 patients | Hematologic (Approx. %) ([6]; human, in vivo): 11% | Hematologic (No. of Patients) ([6]; human, in vivo): 10 patients | Mucositis: erythema ([6]; human, in vivo): 3 patients | Mucositis: ulcers, able to eat ([6]; human, in vivo): 7 patients | Mucositis: ulcers, unable to eat ([6]; human, in vivo): 6 patients | Myelosuppression (number) ([6]; human, in vivo): 7 patients | Myelosuppression (percent) ([6]; human, in vivo): 8% | Myopathy (Approx. %) ([6]; human, in vivo): 3% | Myopathy (No. of Patients) ([6]; human, in vivo): 3 patients | Nausea and vomiting (Approx. %) ([6]; human, in vivo): 16% | Nausea and vomiting (No. of Patients) ([6]; human, in vivo): 14 patients | Platelets: 25 × 10^3 -50 × 10^3 /mm^3 ([6]; human, in vivo): 2 patients | Skin rash (Approx. %) ([6]; human, in vivo): 2% | Skin rash (No. of Patients) ([6]; human, in vivo): 2 patients | Urethritis (Approx. %) ([6]; human, in vivo): 3% | Urethritis (No. of Patients) ([6]; human, in vivo): 3 patients | Vasculitis (Approx. %) ([6]; human, in vivo): 2% | Vasculitis (No. of Patients) ([6]; human, in vivo): 2 patients | anemia (number) ([6]; human, in vivo): 3 patients | anemia (percent) ([6]; human, in vivo): 3% | bloody diarrhea ([6]; human, in vivo): 1 patients | hospitalization secondary to vomiting ([6]; human, in vivo): 1 patients | nausea, no vomiting ([6]; human, in vivo): 5 patients | severe muscle pain and weakness of the lower extremities ([6]; human, in vivo): three | cumulative toxicity ([6]; increasing numbers of courses): toxicity appeared to be cumulative | reversibility of muscle pain and weakness ([6]; three patients): reversible with drug withdrawal | creatinine phosphokinase and aldolase ([6]; three patients with muscle pain and weakness): normal | Number with Toxicity ([6]; ≥4 courses MGBG, 56 patients): 28 patients | Number with Toxicity (Approx %) ([6]; ≥4 courses MGBG, 56 patients): 50% | intermediate concentrations acting selectively on all polyamine synthesis [7]: 0.6 to 2.4 µg/mL | concentration with complete inhibition of mitochondrial respiration [8]: ≥ 30000 ng/mL | Leukopenia <3000/mm^3 or <50% of initial value [9, 11]: 16 patients | Leukopenia <3000/mm^3 or <50% of initial value, severe toxicity which contributed to death [9, 11]: 1 patients | response to MGBG ([9]; intravenous 150 mg/m^2/day, Regelson and Holland): seen only in the presence of significant toxicity which seriously compromised any clinical improvement | "Myositis" ([9]; iv 150 mg/m^2/day, 46 patients): 5 patients | Cutaneous lesions ([9]; iv 150 mg/m^2/day, 46 patients): 12 patients | Diarrhea ([9]; iv 150 mg/m^2/day, 46 patients): 32 patients | Diarrhea, severe toxicity which contributed to death ([9]; iv 150 mg/m^2/day, 46 patients): 1 patients | Oropharyngeal and/or esophageal toxicity ([9]; iv 150 mg/m^2/day, 63 courses in 46 patients): 43 patients | Hypoglycemia <60 mg % ([9]; iv 150 mg/m^2/day): 4 patients | Hypoglycemia <60 mg %, severe toxicity which contributed to death ([9]; iv 150 mg/m^2/day): 2 patients | Laryngitis ([9]; iv 150 mg/m^2/day): 14 patients | Laryngitis, severe toxicity which contributed to death ([9]; iv 150 mg/m^2/day): 1 patients | Proctitis ([9]; iv 150 mg/m^2/day): 2 patients | Vulvovaginitis ([9]; iv 150 mg/m^2/day): 4 patients | Leukopenia <3000 mm^3 [9, 12]: 5 patients | Leukopenia <3000 mm^3, severe toxicity which contributed to death [9, 12]: 1 patients | Thrombocytopenia <75,000/mm^3 [9, 12]: 3 patients | deaths to which severe toxicity contributed ([9]; of 27 patients who died while on study): 6 patients | antitumor activity [10]: growth inhibiting effects; also recorded: antitumor activity
